Counter-ions that a name gives are not always drawn.
Tested on: F-2,6-P2 in NUGC-3 cells
Assay: Quantification of F-2,6-P2 (Van Schaftingen coupled enzyme assay) in NUGC-3 cells
Type: cell-based
Details: Homo sapiens; NUGC-3 cells, under hypoxia (0.6-1% O2); read-out: IC50 based on quantification of F-2,6-P2
Source text: A method for quantification of F-2,6-P2 has been described by Van Schaftingen et al. (1982) Eur. J. Biochem. 129, 191-5. This sensitive assay is based on the potent activation of pyrophosphate dependent phosphofructokinase-1 (PPi-PFK) from potato tubers by F-2,6-P2. The use of a series of coupled enzymes leads to a consumption of NADH (nicotinamide adenine dinucleotide) that can be followed spectrophotometrically (an updated protocol is available in Van Schaftingen, (1984) Methods of Enzymatic Analysis (Bergmeyer, H. U., ed.), 3rd edn., vol. 6, pp. 335-341, Verlag Chemie, Weinheim). A protocol for measurements in 96-well microtiter plate format is also available (Bruni et al., (1989) Anal. Biochem. 178, 324-6).
The levels of F-2,6-P2 have been determined using the van Shaftingen assay as described in the protocol below, in six different cancer cell lines endogenously expressing varying levels of the different isoforms of PFK-2/BPase-2 (MCF-7, PANC-1, NUGC-3, SW480, SW620 and MIA PaCa-2). All reagents were purchased from commercial sources or prepared in-house.
Cell line C (NUGC-3, human gastric cancer cell line): NUGC-3 cells (JCRB0822), lot no. 04272009. Growth medium: RPMI1640, #R8758, Sigma-Aldrich; 10% FBS, Invitrogen, 10270-106 or Dulbecco's Modified Eagle's Medium, DMEM, VWR, LONZ12-604F; 10% FBS, Invitrogen, 10270-106. Cells were seeded at a concentration of ˜350 000 cells/mL in 100 μL growth medium (˜35 000 cells/well).
Starvation medium (cell lines A-F): DMEM/F12 without phenol red and glucose free, SVA, 991373; 0.25% FBS, Invitrogen, 10270-106.
Induction medium (cell lines A-F): DMEM/F12 without phenol red and glucose free, SVA, 991373; 0.25% FBS, Invitrogen, 10270-106 (same as starvation medium).
Cells were seeded in 96-well Corning Costar tissue culture plates (CLS3595, Sigma-Aldrich) using the concentrations specified above for the different cell lines A-F and incubated over night at 37° C. and 5% CO2. Row A in the plate was left empty and the cell lines added to rows B-H. Next day the growth medium was discarded and replaced with 100 μL starvation medium. The plates were incubated for 18 h at 37° C. and 5% CO2. After 18 h of starvation the cells were induced with 100 μL compound or control solutions. Compounds were either tested in two concentrations (50 μM and 10 μM) or in dose response curves starting from 50 μM. The final DMSO concentration in assay plates was 0.5%. Also a dose response curve of a reference inhibitor was included in row H on each plate. All compounds were tested in duplicate plates. Compounds (in 96 well CLS 3365, Sigma-Aldrich plates) were serial diluted in DMSO from 10 mM compound DMSO stock solutions with Janus (automated liquid handling workstation from PerkinElmer). Five μL were transferred to a Greiner deep well plate (736-0155, VWR) with 495 μL starvation medium. The final start concentration of compounds in the dilution plate was 100 μM, 1% DMSO. For compounds tested as single points, 10 mM compound solutions were diluted five fold in DMSO to 2 mM, followed by the transfer of 5 μL to separate dilution plates with 495 μL starvation medium. The final concentrations of compounds in these dilution plates were 100 or 20 μM, respectively, and final concentration of DMSO was 1%. The plates were incubated at 37° C. and 5% CO2 for 1 h, followed by the addition of 10 μL 20 mM D-glucose in starvation medium. Controls, with and without 1 mM glucose, were included in row B. The final assay volume was 210 μL per well. After 2 h of incubation at 37° C. and 5% CO2, the supernatants were discarded and the cells lysed by the addition of 25 μL 250 mM NaOH. The plates were incubated at 37° C. and 5% CO2 for 5 min followed by an addition of 75 μL MilliQ dH2O. The supernatants were further diluted with 210 μL MilliQ dH2O to a final concentration of 20 mM NaOH. 200 μL were transferred to NUNC 96-well plates (7322661, VWR) and the plates were sealed and stored at −20° C. until analysis. […]
`Cn1c(COC(=O)c2ccc(NS(=O)(=O)c3cc(Cl)c(Cl)s3)cc2O)cnc1[N+](=O)[O-]` [Example 202, (1-Methyl-2-nitro-1H-imidazol-5-yl)methyl 4-{[(4,5-dichlorothiophen-2-yl)sulfonyl]amino}-2-hydroxybenzoate] gave an IC50 of 5600 nM.

Same assay, conditions: Homo sapiens; NUGC-3 cells; read-out: IC50 based on quantification of F-2,6-P2
In the case of `O=C(OCCCN1CCOCC1)c1ccc(NS(=O)(=O)c2cc(-c3ccc4c(c3)OCO4)c(Cl)s2)cc1O` [Example 162, 3-Morpholin-4-ylpropyl 4-({[4-(1,3-benzodioxol-5-yl)-5-chloro-2-thienyl]sulfonyl}amino)-2-hydroxybenzoate trifluoroacetate], the IC50 is reported as 2800 nM.
Work on `CC(CCN1CCOCC1)OC(=O)c1ccc(NS(=O)(=O)c2cc(Cl)c(Cl)s2)cc1O` (centres unmarked) [Example 193] yielded an IC50 of 1200 nM.
Work on `COC(=O)c1ccc(NS(=O)(=O)c2cccc(-c3cc(F)ccc3F)c2)cc1O` [Example 153, Methyl 4-{[(2′,5′-difluorobiphenyl-3-yl)sulfonyl]amino}-2-hydroxybenzoate] yielded an IC50 of 5100 nM.
Compound `COC(=O)c1ccc(NS(=O)(=O)c2cc(Cl)c(Cl)s2)cc1O` [Example 27, Methyl 4-{[(4,5-dichloro-2-thienyl)sulfonyl]amino}-2-hydroxybenzoate] has an IC50 of 900 nM.
Compound `COCC(COC)OC(=O)c1ccc(NS(=O)(=O)c2cc(Cl)cc(Cl)c2)cc1O` [Example 191, 2-Methoxy-1-(methoxymethyl)ethyl 4-{[(3,5-dichlorophenyl)sulfonyl]amino}-2-hydroxybenzoate] has an IC50 of 1400 nM.

Tested on: F-2,6-P2 in PANC-1 cells
Assay: Quantification of F-2,6-P2 (Van Schaftingen coupled enzyme assay) in PANC-1 cells
Type: cell-based, human
Details: Homo sapiens; PANC-1 cells; read-out: IC50 based on quantification of F-2,6-P2
Summary of the method: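 PANC-1 cells (~25 000/well) starved 18 h in glucose-free 0.25% FBS medium, treated 1 h with compound (50 and 10 μM, or dose response from 50 μM; 0.5% DMSO), then glucose added for 2 h at 37 °C. Cells lysed in NaOH; F-2,6-P2 quantified by PPi-PFK coupled NADH-consumption spectrophotometry.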
With `COC(=O)c1ccc(NS(=O)(=O)Cc2cccc(-c3ccc4c(c3)CCO4)c2)cc1O` [Example 122, Methyl 4-({[3-(2,3-dihydro-1-benzofuran-5-yl)benzyl]sulfonyl}amino)-2-hydroxybenzoate] the IC50 was 5.9 µM.
Work on `COC(=O)c1ccc(NS(=O)(=O)c2csc3ccccc23)cc1O` [Example 52, Methyl 4-[(1-benzothien-3-ylsulfonyl)amino]-2-hydroxybenzoate] yielded an IC50 of 10.8 µM.
`O=C(OCc1ccccc1)c1ccc(NS(=O)(=O)c2cc(Cl)c(Cl)s2)cc1O` [Example 71, Benzyl 4-{[(4,5-dichloro-2-thienyl)sulfonyl]amino}-2-hydroxybenzoate] showed an IC50 of 0.8 µM.
`Cc1cc(NCCCOC(=O)c2ccc(NS(=O)(=O)c3cccc(-c4cc(F)ccc4O)c3)cc2O)no1` [Example 232, 3-[(5-Methylisoxazol-3-yl)amino]propyl 4-{[(5′-fluoro-2′-hydroxybiphenyl-3-yl)sulfonyl]amino}-2-hydroxybenzoate trifluoroacetate] showed an IC50 of 0.8 µM.
In the case of `COC(=O)c1ccc(NS(=O)(=O)c2cccc(-c3ccc(C(C)=O)s3)c2)cc1O` [Example 95, Methyl 4-({[3-(5-acetyl-2-thienyl)phenyl]sulfonyl}amino)-2-hydroxybenzoate], the IC50 is reported as 1.7 µM.
In the case of `COC(=O)c1ccc(NS(=O)(=O)c2cccc(OC(F)(F)F)c2)cc1O` [Example 44, Methyl 2-hydroxy-4-({[3-(trifluoromethoxy)phenyl]sulfonyl}amino)benzoate], the IC50 is reported as 5.8 µM.
With `COC(=O)c1ccc(NS(=O)(=O)c2cc(Cl)c(Cl)s2)cc1O` [Example 27, Methyl 4-{[(4,5-dichloro-2-thienyl)sulfonyl]amino}-2-hydroxybenzoate] the IC50 was 0.8 µM.
`COC(=O)c1ccc(NS(=O)(=O)c2cc(-c3ccc(NS(C)(=O)=O)cc3)c(Cl)s2)cc1O` [Example 108, Methyl 4-{[(5-chloro-4-{4-[(methylsulfonyl)amino]phenyl}thiophen-2-yl)sulfonyl]amino}-2-hydroxybenzoate] gave an IC50 of 7.7 µM.
In the case of `COC(=O)c1ccc(NS(=O)(=O)c2cccc(-c3ccc4ncccc4c3)c2)cc1O` [Example 91, Methyl 2-hydroxy-4-{[(3-quinolin-6-ylphenyl)sulfonyl]amino}benzoate trifluoroacetate], the IC50 is reported as 4.5 µM.
For `COC(=O)c1ccc(NS(=O)(=O)c2cccc(Br)c2)cc1O` [Example 5, Methyl 4-{[(3-bromophenyl)sulfonyl]amino}-2-hydroxybenzoate], the IC50 was 12.3 µM.
`COC(=O)c1ccc(NS(=O)(=O)c2cnc(Cl)c(-c3ccc4c(c3)CCO4)c2)cc1O` [Example 155, Methyl 4-({[6-chloro-5-(2,3-dihydro-1-benzofuran-5-yl)pyridin-3-yl]sulfonyl}amino)-2-hydroxybenzoate] showed an IC50 of 4.9 µM.
Compound `O=C(OCCCNc1cccnc1)c1ccc(NS(=O)(=O)c2cccc(-c3cc(F)ccc3O)c2)cc1O` [Example 230, 3-(Pyridin-3-ylamino)propyl 4-{[(5′-fluoro-2′-hydroxybiphenyl-3-yl)sulfonyl]amino}-2-hydroxybenzoate trifluoroacetate] has an IC50 of 1.9 µM.
`COCCOC(=O)c1ccc(NS(=O)(=O)c2cc(-c3ccccc3O)c(Cl)s2)cc1O` [Example 133, 2-Methoxyethyl 4-({[5-chloro-4-(2-hydroxyphenyl)-2-thienyl]sulfonyl}amino)-2-hydroxybenzoate] showed an IC50 of 1.2 µM.
With `CCCCOC(=O)c1ccc(NS(=O)(=O)c2cc(Cl)c(Cl)s2)cc1O` [Example 70, Butyl 4-{[(4,5-dichloro-2-thienyl)sulfonyl]amino}-2-hydroxybenzoate] the IC50 was 0.2 µM.

Same assay, conditions: at 12.5-50 μM in PANC-1 cells
For `COC(=O)c1ccc(NS(=O)(=O)Cc2cccc(Br)c2)cc1O` [Example 23, Methyl 4-{[(3-bromobenzyl)sulfonyl]amino}-2-hydroxybenzoate], the “inhibition (F-2,6-P2 levels)” value was at least 50%.

Tested on: not listed separately
Assay: Cell toxicity, CellTiter-Blue Cell Viability Assay
Details: human, MIA PaCa-2 pancreatic carcinoma cells, MIA PaCa-2 cells, 72 h culture, read-out: IC50 based on cell toxicity
Procedure: The CellTiter-Blue® Cell Viability Assay provides a homogeneous, fluorometric method for estimating the number of viable cells present in multi-well plates. It uses the indicator dye resazurin to measure the metabolic capacity of cells. Viable cells retain the ability to reduce resazurin into resorufin, which is highly fluorescent.
Stock solutions (10 or 100 mM in DMSO) of compounds were serially diluted 1:2 in 11 concentrations. 25 nL/well (100 mM stock) or 50 nL/well (10 mM stock) were acoustically dispensed in assay plates with EDC acoustic dispenser. Final starting conc. in assay was 20 μM (0.2% DMSO) or 100 μM (0.1% DMSO) for test compounds.
Cells (MIA-PaCa-2; pancreatic carcinoma) were seeded in assay plates (384-well black/clear, Greiner #781091) pre-dispensed with compounds, 25 μL/well, and cultured for 72 h. The cell concentration was 750 cells/well. After 72 h culture, Celltiter Blue reagent was added (5 μL/well) and the plates were incubated for 2 h. The plates were read in an Envision fluorescence reader with Ex544 nm/Em590 nm. Results were calculated as % cytotoxicity compared to background (cells treated with 0.2% DMSO).
`CC(C)(C)OC(=O)N1CCC(OC(=O)c2ccc(NS(=O)(=O)c3c(Cl)sc(Cl)c3Cl)cc2O)C1` (centres unmarked) [Example 205, tert-Butyl 3-[(2-hydroxy-4-{[(2,4,5-trichloro-3-thienyl)sulfonyl]amino}benzoyl)oxy]pyrrolidine-1-carboxylate] gave an IC50 at 72 h of 17.7 µM.
Work on `O=C(OCCCN1CCOCC1)c1ccc(NS(=O)(=O)c2cccc(-c3cc(F)ccc3O)c2)cc1O` [Example 160, 3-Morpholin-4-ylpropyl 4-{[(5′-fluoro-2′-hydroxybiphenyl-3-yl)sulfonyl]amino}-2-hydroxybenzoate trifluoroacetate] yielded an IC50 at 72 h of 3.6 µM.

Source: patent US9718809B2, “Bisarylsulfonamides useful in the treatment of inflammation and cancer” (Kancera AB, priority 2011, dated 2017)
